The values below come from ChEMBL document CHEMBL1148689, “Isolation of new phenylacetylingol derivatives that reactivate HIV-1 latency and a novel spirotriterpenoid from Euphorbia officinarum latex” (2007).

Active and inactive are the calls of the source. The rule behind the calls is not given here.

Test [1] has as its system Jurkat. The test can be described thus: Cell cycle arrest in human Jurkat cells assessed as accumulation at G0/G1 phase at 10 uM after 36 hrs by flow cytometry. The format is functional.
Test [2] deals with Jurkat. The test can be described thus: Induction of HIV-LTR transactivation assessed by GFP expression in Jurkat cells at 50 uM after 36 hrs by flow cytometry. Particulars: Human immunodeficiency virus. It is filed as cell-based. Background: A flow cytometer gives signals particle by particle.
Test [3] relates to Jurkat. The test can be described thus: Induction of HIV-LTR transactivation assessed by GFP expression in Jurkat cells at 25 uM after 36 hrs by flow cytometry. It is filed as cell-based. Particulars: Human immunodeficiency virus.
In test [4] the test system is Jurkat. The test can be described thus: Cell cycle arrest in human Jurkat cells assessed as accumulation at sub-G0 phase at 50 uM after 36 hrs by flow cytometry. It is filed as functional.
For test [5], the system named is Jurkat. As to the kind of experiment: Cell cycle arrest in human Jurkat cells assessed as accumulation at G2/M phase at 10 uM after 36 hrs by flow cytometry. The format is functional.
Test [6] has as its system Jurkat. The test can be described thus: Cell cycle arrest in human Jurkat cells assessed as accumulation at sub-G0 phase at 10 uM after 36 hrs by flow cytometry. It is filed as functional.
Test [7] concerns Jurkat. The test can be described thus: Cell cycle arrest in human Jurkat cells assessed as accumulation at S phase at 10 uM after 36 hrs by flow cytometry. It is filed as functional.
The test system of test [8] is Jurkat. As to the kind of experiment: Cell cycle arrest in human Jurkat cells assessed as accumulation at S phase at 50 uM after 36 hrs by flow cytometry. The format is functional.
Test [9] relates to Jurkat. As to the kind of experiment: Induction of HIV-LTR transactivation assessed by GFP expression in Jurkat cells at 10 uM after 36 hrs by flow cytometry. It is filed as cell-based. To be noted: Human immunodeficiency virus.
In test [10] the test system is Jurkat. As to the kind of experiment: Cell cycle arrest in human Jurkat cells assessed as accumulation at G2/M phase at 50 uM after 36 hrs by flow cytometry. The format is functional.
In test [11] the test system is Jurkat. As to the kind of experiment: Cell cycle arrest in human Jurkat cells assessed as accumulation at G0/G1 phase at 50 uM after 36 hrs by flow cytometry. It is filed as functional.
Test [12] has as its system Jurkat. As to the kind of experiment: Induction of HIV-LTR transactivation assessed by GFP expression in Jurkat cells at 10 ng/ml after 36 hrs by flow cytometry. It is filed as cell-based. To be noted: Human immunodeficiency virus.

Take `CC(=O)OC1/C(C)=C/[C@@]23O[C@@]2(C[C@H](C)[C@@H]3OC(=O)Cc2ccccc2)C(=O)[C@H](C)[C@H](OC(C)=O)[C@@H]2[C@H]([C@H]1OC(C)=O)C2(C)C` (some centres undefined): the Activity is 61.5% in the test on Jurkat [1]; 1.38% with Jurkat [4]; 15.9% in the test on Jurkat [5]; 1.52% in the test with Jurkat [6]; 20.9% in the test on Jurkat [7]; 18.7% in the test with Jurkat [8]. Further, the Activity in the test with Jurkat [10] stood at 13.4%; in the test on Jurkat [11], 66.2%. The result in the test on Jurkat [2], in the test with Jurkat [3] and with Jurkat [9] was inactive.

On to `CO[C@H]1C(OC(C)=O)/C(C)=C/[C@@]23O[C@@]2(C[C@H](C)[C@@H]3OC(=O)Cc2ccccc2)C(=O)[C@H](C)[C@H](OC(C)=O)[C@@H]2[C@H]1C2(C)C` (some centres undefined), for which the Activity in the test on Jurkat [1] was 77.8%; in the test with Jurkat [2] it was 83.5%; in the test with Jurkat [3], 66%; in the test with Jurkat [4], 3.97%; in the test on Jurkat [5], 10.8%; in the test on Jurkat [6], 2.34%. The Activity turned out to be 9.01% in the test with Jurkat [7]; 5.31% in the test on Jurkat [8]; 25.5% in the test on Jurkat [9]; 9.22% in the test on Jurkat [10]; 81.4% in the test with Jurkat [11].

In turn, `CCCCCCCCCCCCCC(=O)O[C@@H]1[C@@H](C)[C@@]2(O)[C@@H](C=C(CO)C[C@]3(O)C(=O)C(C)=C[C@@H]23)[C@@H]2C(C)(C)[C@]12OC(C)=O` yielded an Activity with Jurkat [12] of 97.3%.

Turning to `COc1ccc(CC(=O)O[C@H]2[C@@H](C)C[C@@]34O[C@@]23/C=C(\C)C(OC(C)=O)[C@H](OC(C)=O)[C@H]2[C@@H]([C@@H](OC(C)=O)[C@@H](C)C4=O)C2(C)C)cc1` (some centres undefined), the Activity in the test with Jurkat [1] was 60.9%; in the test with Jurkat [4], 1.95%; in the test with Jurkat [5], 16.4%; in the test with Jurkat [6], 1.59%; in the test with Jurkat [7], 21%; in the test on Jurkat [8] it was 21.7%. The values for the Activity with Jurkat [10] and in the test with Jurkat [11] were 14.7% and 61.5%, respectively. Besides, the outcome with Jurkat [2], in the test on Jurkat [3] and with Jurkat [9] was inactive.
